In test [1] the test system is collagen type I alpha 1 (COL1A1). The test can be described thus: Gene expression in adipose tissue of mice after Tempol administration, Affymetrix MOE430A 2.0 array. Type of test: in vivo. Here is the method:
(§1) In a further gene expression study, Tempol was administered to experimental mice at a dose of 5 g/kg of diet from 12 months through 15 months. Mice receiving the same diet without the addition of Tempol were used as a negative control. At the age of 15 months, the adipose tissue of the experimental animals was obtained. The expression of a broad spectrum of genes in the adipose tissue was assessed using chip-based microarray technology. Specifically, in this case an Affymetrix MOE430A 2.0 array, containing 12,960 genes, was employed. Such chips are well known in the art and are widely used to assess gene expression.

The subject of test [2] is complement component 6 (C6). The test is described as above. Type of test: in vivo. As for the experimental part: as §1
In another test the test system is collagen type 1 A1. The test can be described thus: Protein level in fibroblasts of patient after Tempol treatment. It counts as in vivo, human. As for the experimental part: (§2) A 70-kilogram patient diagnosed with an autoimmune disease is administered a dose of 1500 mg of Tempol per day for 180 days. This may be administered in a single dose, or may be administered as a number of smaller doses over a 24-hour period: for example, three 500-mg doses at eight-hour intervals. Following treatment, the protein level of glucocorticoid-induced leucine zipper in circulating monocytes is increased, and the protein levels of complement component 6 in plasma and of collagen type 1 A1 in fibroblasts is reduced.
(§3) A 70-kilogram patient is administered a dose of 1500 mg of Tempol per day for 180 days prior to receiving an organ transplant. This may be administered in a single dose, or may be administered as a number of smaller doses over a 24-hour period: for example, three 500-mg doses at eight-hour intervals. Following treatment, the protein level of glucocorticoid-induced leucine zipper in circulating monocytes is increased, and the protein levels of complement component 6 in plasma and of collagen type 1 A1 in fibroblasts is reduced.

The subject of the next test is complement component 6. The test can be described thus: Protein level in plasma of patient after Tempol treatment. Type of test: in vivo, human. Here is the method:
as §2, §3

In test [3] the test system is glucocorticoid-induced leucine zipper (GILZ). In words: Gene expression in cardiac tissue of mice after Tempol administration, chip-based microarray. Type of test: in vivo. Here is the method: To assess the effects of Tempol on gene expression, Tempol was administered to experimental mice at a dose of 5 mg/g of food from 14 months to 31 months after birth. Mice receiving the same food without the addition of Tempol were used as a negative control. At the age of 31 months, the experimental animals were sacrificed and the hearts were surgically removed. The expression of a broad spectrum of genes in the cardiac tissue was assessed using chip-based microarray technology. Such chips are well known in the art and are widely used to assess gene expression.

The test system of test [4] is glucocorticoid-induced leucine zipper. In words: Protein level in circulating monocytes of patient after Tempol treatment. It counts as in vivo, human. As for the experimental part:
as §2, §3

[5] abbreviates: 5 g/kg of diet from 12 through 15 months, microarray signal.
Where [6] appears, read: Example 1: patient with autoimmune disease, 1500 mg per day for 180 days.
Where [7] appears, read: Example 2: 1500 mg per day for 180 days prior to organ transplant.

`CC1(C)CC(O)CC(C)(C)N1[O]` [Tempol, 4-hydroxy-2,2,6,6-tetramethylpiperidine-1-oxyl]: the “COL1A1 expression, Mean (Tempol-treated mice)” value in test [1] (setting [5]) is given as 1688. Further, the “COL1A1 Fold change” value in test [1] (Tempol-treated vs control mice) is reported as −1.28. Further, the “C6 expression, Mean (Tempol-treated mice)” value in test [2] (setting [5]) worked out at 337. Moreover, in test [2] (Tempol-treated vs control mice), the “C6 Fold change” value is reported as −1.85. For the same compound, in test [2] (Tempol-treated vs control mice), the C6 expression decrease entry was “decrease in expression”. Also, the “protein level of collagen type 1 A1 in fibroblasts” value in the test with collagen type 1 A1 (setting [6]) and with collagen type 1 A1 (setting [7]) was “reduced” each time. The “protein level of complement component 6 in plasma” value in the test on complement component 6 (setting [6]) and in the test on complement component 6 (setting [7]) was “reduced” each time. Moreover, the “GILZ Fold change” value in test [3] (TEMPOL-treated vs control mice, upregulated gene) was determined as 2.3. In test [3] (mouse tp51, 5 mg/g of food from 14 to 31 months, microarray signal), the “GILZ (AA097711) expression, TEMPOL-treated mice tp51” value worked out at 83. Further, the “GILZ (AA097711) expression, TEMPOL-treated mice tp52” value in test [3] (mouse tp52, 5 mg/g of food from 14 to 31 months, microarray signal) was determined as 33. Also, the “GILZ (AA097711) expression, TEMPOL-treated mice tp53” value in test [3] (mouse tp53, 5 mg/g of food from 14 to 31 months, microarray signal) was 4. Also, the “protein level of glucocorticoid-induced leucine zipper in circulating monocytes” value in test [4] (setting [6]) and in test [4] (setting [7]) was “increased” each time.

The record behind these values is patent publication US20090209581A1, “NITROXIDES FOR USE IN TREATING OR PREVENTING IMMUNOLOGICAL DISEASES” (priority 2005, published 2009).
